The values below come from patent US20100010035A1, “Novel Dual Action Receptors Antagonists (Dara) at the Ati and Eta Receptors” (priority 2006, published 2010).

Assay [1] addresses T1, human AT1 receptor (Homo sapiens, UniProt P30556).
T1 construct: CHO cell stably over-expressing the full length human AT1 receptor; expressed in transfected cells
T1 sequence (P30556 1-359): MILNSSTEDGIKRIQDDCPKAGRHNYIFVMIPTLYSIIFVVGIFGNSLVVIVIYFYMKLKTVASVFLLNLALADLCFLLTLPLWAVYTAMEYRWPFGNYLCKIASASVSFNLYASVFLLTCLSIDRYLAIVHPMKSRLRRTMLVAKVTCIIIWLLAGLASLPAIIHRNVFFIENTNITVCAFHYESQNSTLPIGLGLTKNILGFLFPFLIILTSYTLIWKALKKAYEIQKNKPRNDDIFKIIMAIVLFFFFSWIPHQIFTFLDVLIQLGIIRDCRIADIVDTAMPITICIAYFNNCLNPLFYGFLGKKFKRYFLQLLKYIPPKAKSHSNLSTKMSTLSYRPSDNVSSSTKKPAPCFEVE
The assay can be described thus: AT1 functional assay (FLIPR Ca efflux, Angiotensin-II at EC80). Type of assay: cell-based. To be noted: CHO cells over-expressing full length human AT1 receptor; Angiotensin-II as agonist at EC80. On the procedure: CHO cell stably over-expressing the full length human AT1 receptor was cultured in DMEM (Gibco) with 10% FCS (Hyclone) and selection maintained using 0.5 mg/ml G418 (Gibco). Cell at 70% confluence were trypsnised, resuspended in media and counted. 20,000 cells/well were plated into black polystyrene 384-well plates with transparent bottoms and allowed 16 hours to adhere. The cells were loaded with Flou-4 (TEFLABS, USA) dye in HBSS (Gibco) for 1 hour and then washed in HBSS and 0.6 μl of diluted compounds in DMSO added to the cells in 30 μd of HBSS in Multimek liquid handling system (Beckman, USA). The cells were then placed in the Fluorometric Imaging Plate Readers (FLIPR, Molecular Devices, USA) and 20 μl of Angiotensin-II peptide as agonist (at EC80) in HBSS was added in the instrument.
(§1) The Ca efflux was followed for 2 mins and the maximum height of the peak was measured at various compound concentrations and plotted according to the equation
(§2) and IC50 estimated wherein A is the bottom plateau of the curve i.e. the final minimum y value B is the top of the plateau of the curve i.e. the final maximum y value C is the x value at the middle of the curve. This represents the log EC50 value when A+B=100 D is the slope factor. x is the original known x values. y is the original known y values.

Assay [2] concerns the target T2, human ETA receptor (Homo sapiens, UniProt P25101).
T2 construct: CHO cell stably over-expressing the full length human ETA receptor; expressed in transfected cells
T2 sequence (P25101 21-427): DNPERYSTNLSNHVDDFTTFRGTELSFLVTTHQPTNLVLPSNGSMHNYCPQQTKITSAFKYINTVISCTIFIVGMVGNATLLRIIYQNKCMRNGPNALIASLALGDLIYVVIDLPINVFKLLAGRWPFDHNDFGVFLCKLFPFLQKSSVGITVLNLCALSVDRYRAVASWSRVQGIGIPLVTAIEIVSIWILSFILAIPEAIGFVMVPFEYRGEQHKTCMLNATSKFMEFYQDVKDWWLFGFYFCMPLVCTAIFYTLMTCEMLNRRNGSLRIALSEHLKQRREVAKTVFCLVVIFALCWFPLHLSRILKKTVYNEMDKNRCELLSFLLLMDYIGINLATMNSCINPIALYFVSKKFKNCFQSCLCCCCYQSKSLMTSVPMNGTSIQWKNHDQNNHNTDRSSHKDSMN
The assay is described as follows: ETA functional assay (FLIPR Ca efflux, Endothelin-1 at EC80). Type of assay: cell-based. To be noted: CHO cells over-expressing full length human ETA receptor; Endothelin-1 as agonist at EC80. On the procedure:
CHO cell stably over-expressing the full length human ETA receptor was cultured in DMEM (Gibco) with 10% FCS (Hyclone) and selection maintained using 0.5 mg/ml G418 (Gibco). Cell at 70% confluence were trypsnised, resuspended in media and counted. 20,000 cells/well were plated into black polystyrene 384-well plates with transparent bottoms and allowed 16 hours to adhere. The cells were loaded with Flou-4 (TEFLABS, USA) dye in BSS (Gibco) for 1 hour and then washed in HBSS and 0.6 μl of diluted compounds in DMSO added to the cells in 30 μl of HBSS in Multimek liquid handling system (Beckman, USA). The cells were then placed in the Fluorometric Imaging Plate Readers (FLIPR, Molecular Devices, USA) and 20 μl of Endothelin-1 peptide as agonist in HBSS (at EC80) was added in the instrument.
as §1, §2

By IC50 is commonly meant the concentration needed to halve the response being measured. Low readings indicate higher potency, high ones lower potency. With `CCc1cc2c(c(Sc3ccccc3)cc(=O)n2Cc2ccc(-c3ccsc3S(=O)(=O)Nc3noc(C)c3C)cc2)c(CC)n1` [Example 3, 3-[4-(5,7-diethyl-2-oxo-4-phenylsulphanyl-2H-[1,6]naphthyridin-1 ylmethyl)-phenyl]-thiophene-2-sulphonic acid(4,5-dimethyl-isoxazol-3-yl)-amide], the IC50 in assay [1] was determined as 0.125 µM; in assay [2] it was 2.92 µM.
For `CCOCc1cc(Cn2nc(C)c3c(C)nc(CC)cc32)ccc1-c1cc(C)sc1S(=O)(=O)Nc1noc(C)c1C` [Example 6, 3-[2-Ethoxymethyl-4-(6-ethyl-3,4-dimethyl-pyrazolo[4,3-c]pyridine-1-ylmethyl)-phenyl]-5-methyl-thiophene-2-sulphonic acid(4,5-dimethyl-isoxazol-3-yl)-amide] the same measures were 0.0229 µM and 0.562 µM.
For `CCc1cc2c(c(C)n1)c(-c1ccccc1)nn2Cc1ccc(-c2ccsc2S(=O)(=O)Nc2ncc(C)nc2OC)cc1` [Example 34], in that order: 0.189 µM and 7.04 µM.
For `CCOc1nc2cccc(C(=O)O)c2n1Cc1ccc(-c2cc(C)sc2S(=O)(=O)Nc2onc(C)c2C)cc1` [Example 26, 3-{4-[2-(3,4-dimethyl-isoxazol-5-ylsulfamoyl)-5-methyl-thiophen-3-yl]-benzyl}-2-ethoxy-3H-benzoimidazole-4-carboxylic acid], in that order: 0.117 µM and 18.9 µM.
